The text below walks through data of article PMC6155907 (Molecules : A Journal of Synthetic Chemistry and Natural …, 2016).

In one assay the test system is GLP-1R. The note with it: radioligand binding and time-resolved fluorescence resonance energy transfer; authors state own rate is in the same range; ref [22],[23]; cited from earlier work.
Assay [1] has as its system human GLP-1R (GLP-1R-YFP). Briefly: Confocal microscopy of receptor internalization. The note with it: 5 min after 1 µM GLP-1; HEK-293 transiently expressing GLP-1R-YFP; live cell confocal microscopy; at least three experiments. Format: cell-based. The protocol:
HEK-293 cells transiently expressing GLP-1R-YFP were plated on to a poly-D-lysin-coated coverslip and mounted on to an “Attofluor” holder (Molecular Probes, Leiden, The Netherlands). The cellular location of GLP-1R-YFP was monitored by live cell confocal microscopy performed on a Zeiss LSM 510 meta system (Carl Zeiss, Oberkochen, Germany). YFP was excited with the 514 nm line of an argon laser, and images were taken with an oil-immersion 63× lens using the factory settings for YFP.

Turning to `CC[C@H](C)[C@H](NC(=O)[C@H](Cc1ccccc1)NC(=O)[C@H](CCC(=O)O)NC(=O)[C@H](CCCCN)NC(=O)[C@H](C)NC(=O)[C@H](C)NC(=O)[C@H](CCC(N)=O)NC(=O)CNC(=O)[C@H](CCC(=O)O)NC(=O)[C@H](CC(C)C)NC(=O)[C@H](Cc1ccc(O)cc1)NC(=O)[C@H](CO)NC(=O)[C@H](CO)NC(=O)[C@@H](NC(=O)[C@H](CC(=O)O)NC(=O)[C@H](CO)NC(=O)[C@@H](NC(=O)[C@H](Cc1ccccc1)NC(=O)[C@@H](NC(=O)CNC(=O)[C@H](CCC(=O)O)NC(=O)[C@H](C)NC(=O)[C@@H](N)Cc1c[nH]cn1)[C@@H](C)O)[C@@H](C)O)C(C)C)C(=O)N[C@@H](C)C(=O)N[C@@H](Cc1c[nH]c2ccccc12)C(=O)N[C@@H](CC(C)C)C(=O)N[C@H](C(=O)N[C@@H](CCCCN)C(=O)NCC(=O)N[C@@H](CCCNC(=N)N)C(N)=O)C(C)C` [GLP-1, glucagon-like peptide-1], in the assay with GLP-1R, the “t1/2 of receptor internalization (range of previous studies)” value is 2 to 3 min. In assay [1], the “cellular location of GLP-1R-YFP after agonist stimulation” value is on record as “the receptor appeared as punctate dots in the cytoplasm”.
